{"source": "patent US20250328351A1", "about": "“CARBONIC ANHYDRASE INHIBITORS AND ANTIBIOTICS AGAINST MULTIDRUG RESISTANT BACTERIA” (Purdue Research Foundation, priority 2018, published 2025)", "key": {"[1]": {"test_system": "Mutant-5 of Enterococcus fecalis NR 31975", "assay": "microbe, parasite or virus in culture", "format": "cell-based"}, "VERO cells": {"test_system": "VERO cells", "assay": "In vitro cytotoxicity, MTS assay", "format": "cell-based, monkey", "details": "concentration up to 128 μg/mL; two hours incubation", "protocol": "Toxicity assessment: Compounds AS005H, AS005J, AS004B, AS005K, AS005A and 005D were assayed (at concentrations of 64 and 128 μg/mL) against a fibroblast-like monkey kidney cell line (VERO cell) to determine the potential toxic effect in vitro. Briefly, cells were cultured in Minimum Essential Medium (MEM) supplemented with 10% fetal bovine serum (FBS), 1 mM sodium pyruvate, and penicillin-streptomycin at 37° C. with CO2 (5%). Control cells received DMSO alone at a concentration equal to that in drug-treated cell samples. The cells were incubated with the compounds (in triplicate) in a 96-well plate at 37° C. with CO2 (5%) for two hours. The assay reagent MTS 3-(4,5-dimethylthiazol-2-yl)-5-(3-carboxymethoxyphenyl)-2-(4-sulfophenyl)-2H-tetrazolium) (Promega, Madison, WI, USA) was subsequently added and the plate was incubated for four hours. Absorbance readings (at OD490) were taken using a kinetic microplate reader (Molecular Devices, Sunnyvale, CA, USA). The quantity of viable cells after treatment with each compound was expressed as a percentage of the viability of DMSO-treated control cells (average of triplicate wells±standard deviation). The toxicity data was analyzed via a two-way ANOVA, with post hoc Dunnet's multiple comparisons test (P<0.05), utilizing GraphPad Prism 6.0 (GraphPad Software, La Jolla, CA).\nPercent viable mammalian cells (measured as average absorbance ratio (test agent relative to DMSO) for cytotoxicity analysis of compounds AS005H, AS005J, AS004B, AS005K, AS005A and 005D (tested in triplicates) at 64 and 128 μg/mL against VERO cells using the MTS 3-(4,5-dimethylthiazol-2-yl)-5-(3-carboxymethoxyphenyl)-2-(4-sulfophenyl)-2H-tetrazolium) assay. Dimethyl sulfoxide (DMSO) was used as a negative control to determine a baseline measurement for the cytotoxic impact of each compound. The absorbance values represent an average of a minimum of three samples analyzed for each compound. Error bars represent standard deviation values for the absorbance values."}, "[2]": {"test_system": "Mutant-14 of Enterococcus fecalis NR 31975", "assay": "microbe, parasite or virus in culture", "format": "cell-based"}, "[3]": {"test_system": "Mutant-13 of Enterococcus fecalis NR 31975", "assay": "microbe, parasite or virus in culture", "format": "cell-based"}, "[4]": {"test_system": "Mutant-2 of Enterococcus fecalis NR 31975", "assay": "microbe, parasite or virus in culture", "format": "cell-based"}, "[5]": {"test_system": "Mutant-7 of Enterococcus fecalis NR 31975", "assay": "microbe, parasite or virus in culture", "format": "cell-based"}, "[6]": {"test_system": "MRSA NRS 384 (MRSA USA300)", "assay": "MIC, broth microdilution (CLSI)", "format": "cell-based", "details": "Staphylococcus aureus; Table 2; TSB", "protocol": "(§1) The minimum inhibitory concentrations (MICs) of the compounds and control drugs were determined using the broth microdilution method, according to guidelines outlined by the Clinical and Laboratory Standards Institute (CLSI)^1. Staphylococci strains were grown aerobically overnight on tryptone soya agar plates at 37° C., afterwards a bacterial solution equivalent to 0.5 McFarland standard was prepared and diluted in tryptone soy broth (TSB) to achieve a bacterial concentration of about 5×10^5 CFU/mL and seeded in 96-well well plates. Compounds and control drugs were added in the first row of the 96-well plates and serially diluted along the plates. Plates were then incubated aerobically at 37° C. for 18-20 hours. MICs reported in Table 2 are the minimum concentration of the compounds/control drugs that could inhibit completely the visual growth of the bacteria."}, "[7]": {"test_system": "Staphylococcus epidermidis NRS 101", "assay": "MIC, broth microdilution (CLSI)", "format": "cell-based", "details": "NRS101, Table 2, TSB", "protocol": "as §1"}, "[8]": {"test_system": "Bifidobacterium longum subsp. Longum 44B HM 845", "assay": "MIC against human normal gut microbiota", "format": "cell-based", "details": "Table 3, BHIS broth, anaerobic, 48 hours", "summary_of_the_method": "(§2)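 Bifidobacterium and Bacteroides were pre-grown on BHIS agar (hemin, vitamin K, L-cysteine) anaerobically, Lactobacillus on MRS agar under 5% CO2, each 48 h at 37° C. Inocula of ~5×10^5 CFU/ml in BHIS or MRS broth were exposed to serial compound dilutions for 48 h under the same conditions.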"}, "[9]": {"test_system": "Bacteroides fragilis CL07T00C01 HM-709", "assay": "MIC against human normal gut microbiota", "format": "cell-based", "details": "Table 3, BHIS broth, anaerobic, 48 hours, read-out: MIC", "summary_of_the_method": "as §2"}, "[10]": {"test_system": "Bacteroides dorei CL02T12C06 HM-719", "assay": "MIC against human normal gut microbiota", "format": "cell-based", "details": "Phocaeicola dorei; Table 3; BHIS broth, anaerobic, 48 hours; read-out: MIC", "summary_of_the_method": "as §2"}, "[11]": {"test_system": "Lactobacillus casei ATCC 334", "assay": "MIC against human normal gut microbiota", "format": "cell-based", "details": "Lacticaseibacillus casei, ATCC334; Table 3; MRS broth, 5% CO2, 48 hours", "summary_of_the_method": "as §2"}, "[12]": {"test_system": "Lactobacillus gasseri EX336960VC03 HM-400", "assay": "MIC against human normal gut microbiota", "format": "cell-based", "details": "Table 3, MRS broth, 5% CO2, 48 hours", "summary_of_the_method": "as §2"}, "[13]": {"test_system": "Bifidobacterium breve JCP7499 HM 1120", "assay": "MIC against human normal gut microbiota", "format": "cell-based", "details": "JCP7499HM1120, Table 3, BHIS broth, anaerobic, 48 hours, read-out: MIC", "summary_of_the_method": "as §2"}, "[14]": {"test_system": "Mutant-6 of Enterococcus fecalis NR 31975", "assay": "microbe, parasite or virus in culture", "format": "cell-based"}, "[15]": {"test_system": "Mutant-15 of Enterococcus fecalis NR 31975", "assay": "microbe, parasite or virus in culture", "format": "cell-based"}, "[16]": {"test_system": "Mutant-3 of Enterococcus fecalis NR 31975", "assay": "microbe, parasite or virus in culture", "format": "cell-based"}}, "data": [{"smiles": "CC(C)=CC(=O)Nc1nnc(S(N)(=O)=O)s1", "note": "[CAI0016, 3-Methyl-N-(5-sulfamoyl-1,3,4-thiadiazol-2-yl)but-2-enamide]", "values": [{"measurement": "MIC", "setting": "[1]", "result": 4, "unit": "µg/mL"}, {"measurement": "toxicity to VERO cells (percent viable cells, MTS)", "setting": "VERO cells", "result": "non-toxic"}, {"measurement": "MIC", "setting": "[2]", "result": 4, "unit": "µg/mL"}, {"measurement": "MIC", "setting": "[3]", "result": 4, "unit": "µg/mL"}, {"measurement": "MIC", "setting": "[4]", "result": 8, "unit": "µg/mL"}, {"measurement": "MIC", "setting": "[5]", "result": 4, "unit": "µg/mL"}, {"measurement": "MIC", "setting": "[6]", "result": "> 64", "unit": "µg/mL"}, {"measurement": "MIC", "setting": "[7]", "result": "> 64", "unit": "µg/mL"}, {"measurement": "MIC", "setting": "[8]", "result": "> 64", "unit": "µg/mL"}, {"measurement": "MIC", "setting": "[9]", "result": "> 64", "unit": "µg/mL"}, {"measurement": "MIC", "setting": "[10]", "result": "> 64", "unit": "µg/mL"}, {"measurement": "MIC", "setting": "[11]", "result": "> 64", "unit": "µg/mL"}, {"measurement": "MIC", "setting": "[12]", "result": "> 64", "unit": "µg/mL"}, {"measurement": "MIC", "setting": "[13]", "result": "> 64", "unit": "µg/mL"}, {"measurement": "MIC", "setting": "[14]", "result": 16, "unit": "µg/mL"}, {"measurement": "MIC", "setting": "[15]", "result": 8, "unit": "µg/mL"}, {"measurement": "MIC", "setting": "[16]", "result": 4, "unit": "µg/mL"}]}]}
